# pIC50: −log10 of the molar value.
# Legend:
# [1] = Octanol-water partition coefficient, log P of the compound; format: physicochemical
# [2] = test system: Entamoeba histolytica; experiment: Antiamoebic activity against Entamoeba histolytica HM-1:IMSS by microdilution method; format: functional, organism-based
# [3] = test system: H9c2; experiment: Cytotoxicity against rat H9c2 cells assessed as cell viability after 48 hrs by MTT assay; format: cell-based; details: H9c2, 48 h
# [4] = test system: H9c2; experiment: Cytotoxicity against rat H9c2 cells assessed as cell viability at 50 uM after 48 hrs by MTT assay; format: cell-based; details: h9c2, 48 h
# [5] = test system: H9c2; experiment: (§1) Cytotoxicity against rat H9c2 cells assessed as cell viability at 200 uM after 48 hrs by MTT assay; format: cell-based; details: h9c2, 48 h, 200 µM
# [6] = test system: H9c2; experiment: Cytotoxicity against rat H9c2 cells assessed as cell viability at 100 uM after 48 hrs by MTT assay; format: cell-based; details: h9c2, 48 h
# [7] = Cytotoxicity against rat H9c2 cells assessed as cell viability at 3.13 to 25 uM after 48 hrs by MTT assay; format: cell-based; details: read-out: Activity
# [8] = Selectivity index, ratio of IC50 for rat H9c2 cells to IC50 for Entamoeba histolytica HM-1:IMSS
# [9] = as §1; format: cell-based; details: H9c2 cells, read-out: Activity
# [10] = in vitro; details: rat, H9c2 cells
# Description: Cytotoxicity against rat H9c2 cells assessed as cell viability at 3.13 uM after 48 hrs by MTT assay
SMILES,logP [1],pIC50 [2],pIC50 [3],Activity [4],Activity [5],Activity [6],viability at 48 h [7] [%],Ratio IC50 [8],"viability at 48 h, 200 µM [9] [%]","viability at 48 h, 3.13 µM [10] [%]"
CC(C)=CCC/C(C)=C/C1=NOC(C)(c2ccccn2)O1 (configuration not stated),4.5,5.65,–,–,–,–,–,–,–,–
CC(C)=CCC/C(C)=C/C1ON=C(c2cccs2)O1 (configuration not stated),4.74,5.52,–,–,–,–,–,–,–,–
CC(C)=CCC/C(C)=C/C1=NOC(c2ccccn2)O1 (configuration not stated),3.96,5.53,–,–,–,–,–,–,–,–
CC(C)=CCC/C(C)=C/C1ON=C(c2ccccn2)O1 (configuration not stated),4.08,5.65,–,–,–,–,–,–,–,–
c1csc(C2=NOC(c3ccc4c(c3)OCO4)O2)c1 (configuration not stated),2.45,5.61,–,–,–,–,–,–,–,–
c1csc(C2ON=C(c3ccc4c(c3)OCO4)O2)c1 (configuration not stated),2.97,5.46,–,–,–,–,–,–,–,–
CC(C)=CCC/C(C)=C/C1=NOC(C)(c2cccs2)O1 (configuration not stated),5.67,5.52,–,–,–,–,–,–,–,–
CC(C)=CCC/C(C)=C/C1ON=C(c2ccco2)O1 (configuration not stated),5.25,5.56,–,–,–,–,–,–,–,–
CC(C)=CCC/C(C)=C/C1=NOC(c2ccco2)O1 (configuration not stated),4.61,5.62,–,–,–,–,–,–,–,–
CC(C)=CCC/C(C)=C/C1=NOC(c2cccs2)O1 (configuration not stated),5.13,5.54,–,–,–,–,–,–,–,–
CC1(c2cccs2)ON=C(c2ccc3c(c2)OCO3)O1 (configuration not stated),3.51,5.57,–,–,–,–,–,–,–,–
Cc1ncc([N+](=O)[O-])n1CCO [METRONIDAZOLE],–,–,< 3.70,Toxic,Toxic,Toxic,–,>137.9,–,100

# Further compounds by rising pIC50 [2], results first:
logP [1],pIC50 [2],SMILES,pIC50 [3],Activity [4],Activity [5],Activity [6],viability at 48 h [7] [%],Ratio IC50 [8],"viability at 48 h, 200 µM [9] [%]","viability at 48 h, 3.13 µM [10] [%]"
5.15,5.69,CC(C)=CCC/C(C)=C/C1=NOC(C)(c2ccco2)O1 (configuration not stated),–,–,–,–,–,–,–,–
5.31,5.83,CC(C)=CCC/C(C)=C/C1=NOC(c2ccc3c(c2)OCO3)O1 (configuration not stated),–,–,–,–,–,–,–,–
5.44,5.86,CC(C)=CCC/C(C)=C/C1ON=C(c2ccc3c(c2)OCO3)O1 (configuration not stated),–,–,–,–,–,–,–,–
2.99,5.96,CC1(c2ccco2)ON=C(c2ccc3c(c2)OCO3)O1 (configuration not stated),< 3.70,Toxic,Toxic,Toxic,≥ 82,>181.81,–,–
2.45,5.96,c1coc(C2ON=C(c3ccc4c(c3)OCO4)O2)c1 (configuration not stated),< 3.70,Toxic,Toxic,Toxic,≥ 82,>183.48,–,–
1.8,5.97,c1ccc(C2=NOC(c3ccc4c(c3)OCO4)O2)nc1 (configuration not stated),4.07,Toxic,Toxic,Toxic,≥ 82,>80.18,–,–
2.97,5.98,c1coc(C2=NOC(c3ccc4c(c3)OCO4)O2)c1 (configuration not stated),3.70,Toxic,Toxic,Toxic,≥ 82,190.47,–,–
1.8,5.99,c1ccc(C2ON=C(c3ccc4c(c3)OCO4)O2)nc1 (configuration not stated),4.40,Toxic,Toxic,Toxic,≥ 82,38.83,–,–
2.34,6.00,CC1(c2ccccn2)ON=C(c2ccc3c(c2)OCO3)O1 (configuration not stated),< 3.70,Toxic,–,Toxic,≥ 82,>200,88,–
